Holding throughout (format): cell-based
Series [1] relates to SK-N-MC cells. The experiment in a line: Protective effect when tBHP was treated on brain cells (LDH assay). The following applies: Homo sapiens, tBHP 400 uM, 6 h. As for the experimental part:
In order to assess the protective effect on brain cells, 2×10^4 brain cells were distributed into the 96-well plate using DMEM media (Gibco, 10% FBS), and incubated for 24 h. The Example compounds were serially diluted by 3-fold to the final concentration of 30, 10, 3, 1, 0.3, 0.1 uM, by which each well was treated for 1 h. Cells were treated with tBHP at the final concentration of 400 uM, and incubated for 6 h. 50 uL of media was taken from each well to proceed with LDH assay (Promega). In LDH assay, 50 uL of media was mixed with 50 uL of assay solution. After the reaction for 30 min at room temperature, absorbance was measured at 490 nm using SpectraMax (Molecular Device).

Series [2] deals with primary hepatocytes isolated from rats. The experiment in a line: Cell protective effects against doxorubicin in hepatocytes (WST-1 cell viability). The following applies: primary rat hepatocytes pretreated with compound for 30 min, then doxorubicin, viability by WST-1 after 24-48 h. The procedure, abridged: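 Rat primary hepatocytes from two-step collagenase perfusion were pretreated for 30 min with compound: 5-step 2- or 3-fold series from 30, 10 or 1 µM, 0.2% DMSO. Doxorubicin or another hepatotoxicant (e.g., CCl4, acetaminophen, H2O2) was then added. Viability after 24–48 h was read by WST-1 (A440), and EC50 was taken as half-maximal protection.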
For orientation: Tetrazolium assays rely on reduction of a dye to a coloured formazan, in cell work by metabolically active cells.

The test system is the same in series [3]. The experiment in a line: Hepatocyte protective effect against substances deriving hepatocyte toxicity (WST-1 cell viability). The following applies: for EC50: Rattus norvegicus, Hepatocyte, viability after 24-48 h, WST-1; for viability: primary rat hepatocytes. As for the experimental part:
Various endogenous/exogenous attacks on the cells trigger the mechanisms of cell death which is broadly classified into two types, i.e. apoptosis or necrosis. Using these cell death mechanisms, in the present experimental example, primacy hepatocytes isolated from rats were treated with drugs which were clinically shown to result in serious side-effects of hepatocyte toxicity or various chemicals which derive cell death, and the compounds synthesized in the Examples were estimated for their hepatocyte protective effects, after 24-48 h. The substances used to derive hepatocyte death include CCl4, ActD, H2O2, doxorubicin, anti-Fas Ab/Actinomycin D, acetaminophen, EtOH, CdCl2, palmitate, stearate, cyclophosphamide, terfenadine, diclofenac, simvastatin, and adefovir. Primary hepatocytes were isolated using the method of Seglen P O (Experimental Cell Research 74 (1972) pp 450-454). Briefly, hepatocytes were isolated according to the two-step collagenase perfusion method, and dead cells were removed by low speed (500 rpm) centrifugation for 10 min using percoll gradient (Kreamer B L etc, In Vitro Cellular & Developmental Biology 22 (1986) pp 201-211). During this step, the viability of cells was maintained 90% or above. The cells were suspended in HepatoZYME media (Gibco BRL), and the number of cells was counted. 1.5×10^4 cells in 100 μl were placed into the collagen-coated 96-well plate (BD biocoat), and adhered on the bottom for 3-4 h.
In order to assess the hepatocyte protective effect, above adhered cells were pretreated with the Example compounds for 30 min. […] 30 min after the treatment by compounds, cells were treated by the substances deriving hepatocyte death or hepatotoxic drugs at the concentrations indicated in Table 1. After 24-48 h, the viability of cells was determined to estimate the hepatocyte protective effects. The viability of cells was determined using WST-1 (MK-400, […]) method by the absorbance at 440 nm. Hepatocyte protective effects of the Example compounds were represented by “EC50” which was calculated from measured values. “EC50” herein means the concentration of the compound at which 50% of maximum protective effect is observed in the experiment.

The subject of series [4] is Linm5F cells. In words: Protective effect when tBHP was treated on pancreatic cells (SRB method). The following applies: Pancreatic beta cell, tBHP 400 uM, 5 h. As for the experimental part:
(§1) In order to determine the protective effect on pancreatic cells, Linm5F cells, a sort of the beta cells, were distributed into the 96-well plate in the amount of 2×10^4 cells/well, and incubated for 24 h. The Example compounds were serially diluted by 3-fold to the final concentration of 30, 10, 3, 1, 0.3, 0.1 uM, by which each well was treated for 1 h. Cells were treated with tBHP at the final concentration of 400 uM, and further incubated for 5 h. Protective effects were determined using SRB (Sulforhodamine B Protein) method in which total amount of cellular protein is stained. Briefly, cells were incubated for 5 h, 50 uL of 4% formaldehyde solution was added to each well to fix the cells, and stored for about 30 min at room temperature. After discarding the media, each well was washed with distilled water 2-3 times, and the plate was dried in an oven at 50°. 50 uL of SRB solution was added to each well, and placed for about 30 min at room temperature. After removing SRB solution, the plate was washed with 1% acetic acid solution 2-3 times. After drying the plate in an oven at 50°, 100 uL of 10 mM Tris was added to elute SRB which was staining the intracellular protein.

Series [5] relates to H9C2 cells. In words: Protective effect when tBHP was treated on cardiac cells (SRB method). As to conditions: Rattus norvegicus, tBHP 400 uM, 2 h, H9C2 cardiomyocytes. As for the experimental part:
as §1, with “After drying the plate in an oven at 50°, 100 uL of 10 mM Tris was added to elute SRB which was staining the intracellular protein.” left out
In order to assess the protective effect on cardiac cells, H9C2 cells were distributed in the amount of 1.5×10^4 cells/well, and incubated for 24 h. […] Protective effect of each compound was determined using the same SRB method as in Linm5F of above mentioned 2).
(In general: In SRB staining, fixed cells bind dye roughly in proportion to their protein.)

Each structure is given as a SMILES string. Some results are limits rather than exact numbers.

As a reminder, the EC50 is the concentration needed to bring the measured effect to its halfway point. One may read the viability as the share of living cells, or the viability signal relative to a control. The low end stands for a greater loss of cells, the high end for better survival.

`O=C(O)C[C@@H]1CSC(c2cc3cc(Cl)cc(NC4CCCC4)c3[nH]2)=N1` [Example 4, [(R)-2-(5-chloro-7-cyclopentylamino-1H-indol-2-yl)-4,5-dihydro-thiazol-4-yl]-acetic acid]: the EC50 in series [1] was no more than 100 nM; in series [2] (Hepatocyte), 300 nM; in series [3] (simvastatin 16 μM), less than 10000 nM; in series [3] (terfenadine 10 μM), 400 nM. In addition, the viability in series [3] (adefovir 100 μM, compound at 3-30 uM) is on record as 50%; in series [3] (diclofenac 350 μM, compound at 3-100 uM), 40%. Regarding `O=C(O)C[C@H]1CSC(c2cc3cccc(NC4CCCC4)c3[nH]2)=N1` [Example 14, [(S)-2-(7-cyclopentylamino-1H-indol-2-yl)-4,5-dihydro-thiazol-4-yl]-acetic acid], the EC50 in series [4] is 150 nM; in series [2] (Hepatocyte), 190 nM. For the molecule `O=C(O)C[C@@H]1CSC(c2cc3cc(Oc4ccccc4)cc(NC4CCCC4)c3[nH]2)=N1` [Example 85, [(R)-2-(5-phenoxy-7-cyclopentylamino-1H-indol-2-yl)-4,5-dihydro-thiazol-4-yl]-acetic acid], the results for the EC50 in series [5] and in series [2] (Hepatocyte) were 700 nM and 400 nM, respectively. In the case of `O=C1c2ccccc2C(=O)N1Cc1cc(NC2CCCC2)c2[nH]c(C3=N[C@H](CO)CS3)cc2c1` [Example 64, [(R)-2-(5-(isoindol-1,3-dion-2-yl)methyl-7-cyclopentylamino-1H-indol-2-yl)-4,5-dihydro-thiazol-4-yl]-methanol], the EC50 in series [2] (Hepatocyte) was determined as 540 nM. Still for that read-out and setting: as for `O=C1CCCN1CC[C@@H]1CSC(c2cc3cc(F)cc(NC4CCCC4)c3[nH]2)=N1` [Example 205, (5-Fluoro-2-{(R)-4-[(2-oxopyrrolidin-1-yl)-ethyl]-4,5-dihydro-thiazol-2-yl}-1H-indol-7-yl)-cyclopentyl-amine], the figure is 340 nM. For the molecule `Cc1cc(NCC2CCOCC2)c2[nH]c(C3=N[C@@H](CC(=O)O)CS3)cc2c1` [Example 22, [(S)-2-(5-methyl-7-(tetrahydropyran-4-yl)methylamino-1H-indol-2-yl)-4,5-dihydro-thiazol-4-yl]-acetic acid], the values for the 50% effective concentration (EC50) in series [5], in series [4] and in series [2] (Hepatocyte) were 170 nM, 200 nM and 250 nM, respectively. Turning to `O=C(O)C[C@H]1COC(c2cc3cc(Cl)cc(NCC4CCOCC4)c3[nH]2)=N1` [Example 122, [(S)-2-(5-chloro-7-(tetrahydropyran-4-yl)methylamino-1H-indol-2-yl)-4,5-dihydro-oxazol-4-yl]-acetic acid], the concentration for a half-maximal effect (EC50) in series [2] (Hepatocyte) amounted to 960 nM.

In the case of `O=C(O)C[C@H]1COC(c2cc3cc(Cl)cc(NC4CCCC4)c3[nH]2)=N1` [Example 121, [(S)-2-(5-chloro-7-cyclopentylamino-1H-indol-2-yl)-4,5-dihydro-oxazol-4-yl]-acetic acid], the EC50 in series [2] (Hepatocyte) stood at 470 nM.

`CCOc1cc(NC2CCCC2)c2[nH]c(C3=N[C@@H](CCO)CS3)cc2c1` [Example 48, [(S)-2-(5-ethoxy-7-cyclopentylamino-1H-indol-2-yl)-4,5-dihydro-thiazol-4-yl]-ethanol]: the concentration giving a half-maximal response (EC50) in series [2] amounted to 200 nM. With `c1ccc(Oc2cc(NC3CCCC3)c3[nH]c(C4=N[C@@H](CCN5CCCC5)CS4)cc3c2)cc1` [Example 249, (5-Phenoxy-2-{(S)-4-[pyrrolidin-1-yl-ethyl]-4,5-dihydro-thiazol-2-yl}-1H-indol-7-yl)-cyclopentyl-amine], the 50% effective concentration (EC50) in series [2] (Hepatocyte) was determined as 110 nM. `CS(=O)(=O)CC[C@@H]1CSC(c2cc3cccc(NC4CCOCC4)c3[nH]2)=N1` [Example 218]: the half-maximal effective concentration (EC50) in series [2] turned out to be 260 nM.

(Values after patent publication US8222414B2, “Indole compounds as an inhibitor of cellular necrosis” (LG Life Sciences Ltd., priority 2007, dated 2012).)
